In general, IC50 refers to the concentration that gives 50% inhibition. Usually EC90 stands for the concentration at which the effect reaches the 90% level. A word on the half-life: it is the time needed for the level to fall by half in the phase considered.

SMILES strings stand for the structures. Like-named read-outs stand apart in the source and are kept apart here.

One data set relates to HIV. Nature of the data set: Inhibition of HIV infection (Table 1). The data set is classed as cell-based, human immunodeficiency virus.
For a further data set, the system named is HSV. Nature of the data set: Inhibition of HSV infection (Table 1). The note with it: for IC50: read-out: IC50 ± STD (nM) (N = x) HSV. The format is cell-based, herpes simplex virus.
For the next data set, the system named is NDV. As to the kind of experiment: microbe, parasite or virus in culture. The note with it: for IC50: read-out: IC50 ± STD (nM) (N = x) NDV. The data set is classed as cell-based, Newcastle disease virus.
Data set [1] can be described thus: Absorption spectra of compounds in DMSO. The data set is classed as physicochemical. The note with it: for Abs Max: 100 μM in DMSO; for Relative integrated area from 400 to 700 nm: area under absorption curve, JL001 = 100.
The subject of the next data set is Hela cells. As to the kind of experiment: Cytotoxicity by MTT assay in dark or under light. The data set is classed as cell-based. The note with it: Homo sapiens, exposed for 1 hour to light, MTT 24 hours later, read-out: concentration triggering death of 50% of treated cells.
Data set [2] deals with lipid-enveloped viruses. Nature of the data set: organism not typed. The note with it: read-out: IC50 inhibition of infection of lipid-enveloped viruses. The data set is classed as cell-based.
Data set [3] has as its system cytomegalovirus (CMV, herpesvirus). The format is cell-based.
For data set [4], the system named is Semliki forest virus (SFV, alphavirus). The format is cell-based.
Data set [5] in a line: Clinical observations after single dose in PK study. The note with it: for toxicity in vivo compared to the rhodanine derivatives: gavage, intravenous or intraperitoneal administration in mice.
A short description of data set [6]: Pharmacokinetic profile after single po, ip or iv administration. The note with it: for bioavailability: female, Balb/c, mouse, plasma.
Data set [7] is described as follows: KT rate constant (Table 1). The note with it: values are KT × 10^−7. The data set is classed as physicochemical.
The next data set relates to Toxoplasma gondii. As to the kind of experiment: Toxoplasma gondii attachment and invasion of HFFs. The format is cell-based. The note with it: 10 μM, normalized to DMSO control, preliminary.
The next data set deals with HIV (IIIB). As to the kind of experiment: HIV inactivation in packed red blood cells, TZM-BL luciferase readout. The data set is classed as cell-based, human immunodeficiency virus. The note with it: 100 μM, 1 h white light, hematocrit 80%.
The test system of data set [8] is lipid-enveloped viruses. The note with it: reference [1], cited from earlier work.
[9] abbreviates: number of experiments in parentheses.
The mark [10] stands for this setting: Human immunodeficiency virus 1, number of experiments in parentheses, read-out: IC50 ± STD (nM) (N = x) HIV.

With `CCN1C(=O)S/C(=C\c2ccc(-c3ccccc3)o2)C1=O` [JL025, reference compound], in the data set on HIV (setting [9]), the “IC50 ± STD (nM) (N = x) HIV” value is on record as “Not active (4)”. Moreover, in the data set on HSV (setting [9]), the “IC50 ± STD (nM) (N = x) HSV” value is given as “Not active (1)”. Also, the “IC50 ± STD (nM) (N = x) NDV” value in the data set with NDV is reported as “Not active (2)”. For the same compound, the “Abs Max” value in [1] was found to be 405 nm.

`CCN1C(=O)/C(=C/c2ccc(-c3ccccc3)o2)OC1=S` [JL101, (Z)-3-ethyl-5-((5-phenylfuran-2-yl)methylene)-2-thioxooxazolidine-4-one]: the IC50 was more than 1000 nM in the data set with HIV (setting [10]) and more than 1000 nM with NDV (avian paramyxovirus 1, Vero).

On to `CCN1C(=S)O/C(=C\c2ccc(-c3ccccc3)o2)C1=S` [JL102, (Z)-3-ethyl-5-((5-phenylfuran-2-yl)methylene)oxazolidine-2,4-dithione], for which the “EC50 fold lower than LJ001's” value in the data set on NDV is “about 10 fold”. In addition, in the data set with Hela cells, the EC50 was approximately 400 nM. For the same compound, in the data set with lipid-enveloped viruses [2], the 50% inhibitory concentration (IC50) is approximately 40 nM. Also, in data set [3], the “inhibition of CMV infection” value is given as “inhibit the infection”. In data set [4], the “inhibition of SFV infection” value is “inhibit the infection”. In addition, in data set [5] (10 mg/kg ip single dose), the clinical observations entry is “appeared normal”. Also, the “toxicity in vivo compared to the rhodanine derivatives” value in [5] is on record as “less toxicity”. For the same compound, the bioavailability in data set [6] (ip, 10 mg/kg) was approximately 50%; in [6] (po, 100 mg/kg), 3.1 to 105%.

Turning to `CCN1C(=S)O/C(=C\c2ccc(-c3ccccc3OC)o2)C1=S` [JL103, (Z)-3-ethyl-5-((5-(2-methoxyphenyl)furan-2-yl)methylene)oxazolidine-2,4-dithione], the IC50 was 3 nM in the data set on HIV (setting [10]); 2.3 ± 2.7 nM in the data set with HSV (setting [9]); 7 nM in the data set on NDV (avian paramyxovirus 1, Vero); approximately 5 nM in the data set on lipid-enveloped viruses [2]. In addition, the “EC50 fold lower than compound 1's” value in the data set with NDV is reported as “about 10 fold”. In addition, in the data set with NDV (avian paramyxovirus 1, Vero, read-out: EC90 antiviral activity on NDV), the concentration for an effect of 90% (EC90) was approximately 15 nM. The absorption peak result in [1] was “about 500 nm”. Besides, the “Abs Max” value in data set [1] stood at 516 nm. In addition, the “Relative integrated area from 400 to 700 nm” value in [1] amounted to 153. For the same compound, the “light absorbed relative to LJ001 (integrated area 400-700 nm)” value in [1] (times more than LJ001) was 1.53 times. For the same compound, the “KT × 10^−7” value in [7] was 7.8 ± 0.6 M^−1s^−1. In data set [3], the “inhibition of CMV infection” value is “inhibit the infection”. Moreover, the “inhibition of SFV infection” value in [4] is listed as “inhibit the infection”. The “inhibition of parasite attachment and invasion” value in the data set with Toxoplasma gondii is “inhibited parasite attachment and invasion”. Further, the clinical observations result in [5] (10 mg/kg ip single dose) is “appeared normal”. For the same compound, in data set [5], the “toxicity in vivo compared to the rhodanine derivatives” value is reported as “less toxicity”. Besides, the bioavailability in [6] (ip, 10 mg/kg) was approximately 50%; in data set [6] (po, 100 mg/kg), 3.1 to 105%.

`CCN1C(=O)/C(=C/c2ccc(-c3ccccc3)o2)NC1=S` [JL104, (Z)-3-ethyl-5-((5-phenylfuran-2-yl)methylene)-2-thioxoimidazolidin-4-one]: the “IC50 ± STD (nM) (N = x) HIV” value with HIV (setting [9]) is reported as “Not active”. Moreover, the 50% inhibitory concentration (IC50) in the data set on HSV (setting [9]) was more than 500000 nM; in the data set on NDV (avian paramyxovirus 1, Vero) it was more than 500000 nM.

For `CCN1C(=S)N/C(=C\c2ccc(-c3ccccc3)o2)C1=S` [JL105, (Z)-3-ethyl-5-((5-phenylfuran-2-yl)methylene)imidazolidine-2,4-dithione], in the data set on NDV (avian paramyxovirus 1, Vero), the IC50 is more than 100000 nM. For the same compound, the “Abs Max” value in data set [1] turned out to be 521 nm.

Regarding `CCN1C(=S)OC(Cc2ccc(-c3ccccc3)o2)C1=S` (stereo not shown) [JL107], the IC50 in the data set on NDV (avian paramyxovirus 1, Vero) came to 928 nM. The “inhibition of parasite attachment and invasion” value in the data set on Toxoplasma gondii was “most potent inhibition”; in the data set with Toxoplasma gondii (listed as 107) it was “inhibited parasite attachment and invasion”.

On to `CCN1C(=S)O/C(=C\c2ccc(-c3c(OC)cccc3OC)o2)C1=S` [JL111, (Z)-3-Ethyl-5-(5-(2,6-dimethoxyphenyl)-furan-2-ylmethylene)oxazolidine-2,4-dithione], for which the 50% inhibitory concentration (IC50) in the data set with NDV (avian paramyxovirus 1, Vero) worked out at 12 nM. In data set [1], the “Abs Max” value is recorded as 499 nm.

For the compound `CCN1C(=S)O/C(=C\c2cc3ccccc3o2)C1=S` [JL113, (Z)-5-(benzofuran-2-ylmethylene)-3-ethyloxazolidine-2,4-dithione], in the data set with NDV (avian paramyxovirus 1, Vero), the IC50 was 865 nM.

As for `CCN1C(=S)O/C(=C\c2ccc(-c3cccc(OC)c3)o2)C1=S` [JL117, (Z)-3-Ethyl-5-(5-(3-methoxyphenyl)-furan-2-ylmethylene)oxazolidine-2,4-dithione], the IC50 in the data set with HSV (setting [9]) was determined as 20 nM; in the data set on NDV (avian paramyxovirus 1, Vero), 5 nM. Also, the “Abs Max” value in data set [1] was 504 nm.

Regarding `CCN1C(=S)O/C(=C\c2ccc(-c3ccc(OC)cc3)n2C)C1=S` [JL119, (Z)-3-Ethyl-5-((5-(4-methoxyphenyl)-1-methyl-1H-pyrrole-2-yl)methylene)oxazolidine-2,4-dithione], the IC50 in the data set on NDV (avian paramyxovirus 1, Vero) stood at 6 nM. For the same compound, the “Abs Max” value in [1] is listed as 551 nm.

With `CCN1C(=O)O/C(=C\c2ccc(-c3ccccc3)o2)C1=O` [JL121, (Z)-3-ethyl-5-((5-phenylfuran-2-yl)methylene)oxazolidine-2,4-dione], the “IC50 ± STD (nM) (N = x) HSV” value with HSV (setting [9]) is reported as “Not active (1)”. Also, the IC50 in the data set on NDV (avian paramyxovirus 1, Vero) was more than 500000 nM. Further, the “KT × 10^−7” value in [7] worked out at 2.5 ± 0.2 M^−1s^−1.

For the compound `CCN1C(=S)O/C(=C\c2ccc(-c3c(OC)cc(OC)cc3OC)o2)C1=S` [JL122, (Z)-3-Ethyl-5-(5-(2,4,6-tiimethoxyphenyl)-furan-2-ylmethylene)oxazolidine-2,4-dithione], the IC50 in the data set with HSV (setting [9]) came to 3 ± 1 nM; with NDV (avian paramyxovirus 1, Vero) it was 1 nM. In addition, the “Abs Max” value in data set [1] amounted to 547 nm. Also, the “HIV inactivation in packed RBC (luciferase activity, RLU)” value in the data set on HIV (IIIB) was “dramatically decrease the luciferase activity to near-background levels”.

Turning to `CCN1C(=S)O/C(=C\c2ccc(-c3ccc(N(C)C)cc3)n2C)C1=S` [JL123], the IC50 in the data set with HSV (setting [9]) was 75 ± 45 nM; in the data set on NDV (avian paramyxovirus 1, Vero), 49 nM. Besides, the “Abs Max” value in data set [1] is reported as 593 nm.

Consider `C=CCN1C(=O)/C(=C/c2ccc(-c3ccccc3)o2)SC1=S` [LJ001, reference compound], for which the IC50 with HIV (Human immunodeficiency virus 1, read-out: IC50 ± STD (nM) (N = x) HIV) was 183 ± 272 nM; in the data set on HSV it was 35 ± 48 nM; with NDV (avian paramyxovirus 1, Vero), 207 nM; with lipid-enveloped viruses [8] (read-out: IC50 viral infection common for all viruses tested) it was approximately 1000 nM. Moreover, in data set [1], the absorption peak entry is on record as “about 440 nm”. In data set [1], the “Abs Max” value came out at 457 nm. For the same compound, in data set [1], the “Relative integrated area from 400 to 700 nm” value was 100. Further, in data set [7], the “KT × 10^−7” value amounted to 1.0 ± 0.1 M^−1s^−1. Besides, the “HIV inactivation in packed RBC (luciferase activity, RLU)” value with HIV (IIIB) is recorded as “unable to inactivate HIV”. Further, the “inhibition of parasite attachment and invasion” value in the data set with Toxoplasma gondii was “highly effective”. For the same compound, in the data set with lipid-enveloped viruses [8], the “IC95 viral infection common for all viruses tested” value was approximately 10000 nM. Also, the clinical observations result is “appeared normal” in data set [5] (5 mg/kg ip single dose); 2 were sacrificed in moribund condition and 1 was found dead in data set [5] (10 mg/kg ip single dose). In addition, the exposure entry in data set [6] (10 mg/kg iv, 5 mg/kg ip, 10 and 100 mg/kg po) is recorded as “minimal exposure”. The same compound gave an elimination in data set [6] (mice, single dose) of approximately 700 mL/min/kg. This compound also had a half-life in [6] (mice, single dose) of 12 min.

Consider `Cc1c(C)c2c(c(C)c1O)CC[C@@](C)(CCC[C@H](C)CCC[C@H](C)CCCC(C)C)O2` [alpha-tocopherol, reference compound], for which the “effect of antioxidant on antiviral activity of JL103” value in the data set with NDV is reported as “blocks the antiviral activity”.

The values above are taken from patent publication US9139575B2, “Broad spectrum antiviral and antiparasitic agents” (priority 2010, dated 2015).
